Laboratory results as given in patent US10328161B2, “Luciferin derivatives from bicyclic reactants and aminothiol derivatives and methods of use thereof” (The Regents of the University of California, priority 2012, dated 2019).

How the values were obtained:
Type in all cases: in vivo
[1] = molecular target: T1, caspase 8 (Mus musculus, UniProt O89110); experiment: Lipopolysaccharide inflammation model, caspase 8 detection with IETDC; settings: pan-caspase inhibitor 1 μmol IP, LPS-treated mice
T1 construct: from tissue; host or cells: living FVB-luc+ mice (whole animal, IP injection) after LPS challenge
T1 sequence (O89110 219-376 limits assumed): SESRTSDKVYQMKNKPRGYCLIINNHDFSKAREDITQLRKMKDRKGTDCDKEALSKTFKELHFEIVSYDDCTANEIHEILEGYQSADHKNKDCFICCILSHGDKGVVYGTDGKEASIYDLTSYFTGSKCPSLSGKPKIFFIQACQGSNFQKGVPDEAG
T1 sequence (O89110 388-480 limits assumed): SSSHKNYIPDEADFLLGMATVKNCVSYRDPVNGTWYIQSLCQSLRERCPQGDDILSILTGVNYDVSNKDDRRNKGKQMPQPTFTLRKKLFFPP
Text: (§1) A Xenogen IVIS Spectrum instrument (Caliper Life Sciences, Hopkinton, Mass.) was used for bioluminescent imaging in all animal experiments. Mice were anesthetized prior to injection and during imaging via inhalation of isoflurane. Phosphate Buffered Saline (PBS) was purchased from Thermo Fisher Scientific (Waltham, Mass.), and saline (0.9%) was made from sodium chloride and Millipore water. Isoflurane was purchased from Phoenix Pharmaceuticals, Inc. (St. Joseph, Mo.), and pharmaceutical grade DMSO was purchased from Sigma-Aldrich (St. Louis, Mo.). Medical grade oxygen was purchased from Praxair (Danbury, Conn.).
(§2) FVB-luc^+ (FVB-Tg(CAG-luc,-GFP)L2G85Chco/J) mice were bred at UC Berkeley, and were single or group-housed on a 12:12 light-dark cycle at 22° C. with free access to food and water. All studies were approved and performed according to the guidelines of the Animal Care and Use Committee of the University of California, Berkeley.
Unshaven, female FVB-luc^+ mice, aged 2-5 months, were anesthetized with isoflurane and injected IP with lipopolysaccharides (LPS, 3 mg/kg in 50 μL of saline) or saline (50 μL). For studies with PCL-2 alone, mice were injected IP with either apocynin (10 mg/kg in 20 μL of DMSO) or DMSO (20 μL) 6 h after LPS injection. […]

[2] = test system: H2O2 and caspase 8; experiment: Lipopolysaccharide inflammation model, dual detection with PCL-2 and IETDC; settings: ascorbic acid 200 mg/kg and z-VD-OPh 1 μmol used together, LPS-treated mice
Text: as §1, §2
For studies with PCL-2 and IETDC, mice were injected IP with ascorbic acid (200 mg/kg in 30 μL of saline) or the saline vehicle (30 μL) 30 min prior to IP injection of LPS (3 mg/kg in 50 μL of saline) or saline (50 μL). Two hours after injection of LPS, z-VD(OMe)-OPh (1 μmol in 20 μL of DMSO) or the vehicle, DMSO (20 μL), was injected IP. […]

[3] = test system: FVB-luc^+ mice; experiment: Control: effect of inhibitors and antioxidants on HCBT and D-cysteine luciferin signal in mice; settings: apocynin 10 mg/kg or z-VD-OPh 1 μmol IP; HCBT and D-cysteine 0.01 μmol each
Description: (a) Total photon fluxes, 0-15 min post-injection, for mice (n=3) injected with apocynin (IP, 10 mg/kg in 20 μL DMSO) or vehicle (IP, 20 μL DMSO) two min prior to injections of a mixture of HCBT and D-cysteine (IP, 0.01 μmol each, in 50 μL of 1:1 DMSO:PBS). (b) Total photon fluxes, 15-45 min post-injection, for mice (n=3) injected with z-VD(OMe)-OPh (IP, 1 μmol in 20 μL DMSO) or vehicle (IP, 20 μL DMSO) 30 min prior to injections of a mixture of HCBT and D-cysteine (IP, 0.01 μmol each, in 50 μL of 1:1 DMSO:PBS). Error bars are ±SEM.
FIG. 18 depicts bioluminescent signals from HCBT and D-cysteine with ascorbic acid in FVB-luc^+ mice. Total photon fluxes, 30-60 min post-injection, for mice (n=3-4) injected with ascorbic acid (IP, 200 mg/kg in 30 μL saline) or vehicle (IP, 30 μL saline) 4.5 h prior to injections of a mixture of HCBT and D-cysteine (IP, 0.01 μmol each, in 50 μL of 1:1 DMSO:PBS). Error bars are ±SEM.

[4] = Antioxidant (NAC) experiments in mice; settings: NAC 10 mg/kg IP, H2O2 1.5 μmol, PCL-2 and D-cysteine 0.05 μmol each
Text: A Xenogen IVIS Spectrum instrument (Caliper Life Sciences, Hopkinton, Mass.) was used for bioluminescent imaging in all animal experiments. Mice were anesthetized prior to injection and during imaging via inhalation of isoflurane. Phosphate Buffered Saline (PBS) was purchased from Thermo Fisher Scientific (Waltham, Mass.), and saline (0.9%) was made from sodium chloride and Millipore water. Isoflurane was purchased from Phoenix Pharmaceuticals, Inc. (St. Joseph, Mo.), and pharmaceutical grade DMSO was purchased from Sigma-Aldrich (St. Louis, Mo.). Medical grade oxygen was purchased from Praxair (Danbury, Conn.). FVB-luc^+ (FVB-Tg(CAG-luc,-GFP)L2G85Chco/J) mice were bred at UC Berkeley, and were single or group-housed on a 12:12 light-dark cycle at 22° C. with free access to food and water. All studies were approved and performed according to the guidelines of the Animal Care and Use Committee of the University of California, Berkeley. Unshaven, male FVB-luc^+ mice, were anesthetized with isoflurane and injected IP with NAC (10 mg/kg in 25 μL of PBS, pH 7-8) or PBS (25 μL). After 2 min, the mice were injected IP with a mixture of PCL-2 and D-cysteine (0.05 μmol each, in 50 μL of 1:1 DMSO:PBS) immediately prior to IP injection of H2O2 (1.5 μmol in 75 μL of PBS). […]

Row | attenuation of the IETDC signal [1] | decrease in dual-probe bioluminescent signal [2] | Structure (SMILES) | effect on the luciferin signal from HCBT and D-cysteine in vivo [3] | effect of NAC on the PCL-2 bioluminescent signal [4]
1 | 34% | 30% | COC(=O)CC(NC(=O)C(NC(=O)OCc1ccccc1)C(C)C)C(=O)COc1c(F)cccc1F (stereo not shown) [z-VD-OPh] | do not alter the luciferin signal | –
2 | – | – | CC(=O)N[C@@H](CS)C(=O)O [NAC, N-acetyl-L-cysteine] | – | considerably attenuated
